Legend:
[1] = target: recombinant human His6-tagged PTP4A2 (Homo sapiens (Human), UniProt Q12974); assay: In vitro biochemical analysis of PTP4A inhibition, DiFMUP substrate; conditions: DiFMUP 12 μM, 25 minutes, 25° C.; mean ± S.E.M.
[2] = target: recombinant human His6-tagged PTP4A3 (Homo sapiens (Human), UniProt O75365); assay: as above; conditions: for preference among the PTP4A family members: PTP4A3 versus PTP4A1 and PTP4A2, from IC50 values
Sequence of recombinant human His6-tagged PTP4A3 (O75365 whole entry): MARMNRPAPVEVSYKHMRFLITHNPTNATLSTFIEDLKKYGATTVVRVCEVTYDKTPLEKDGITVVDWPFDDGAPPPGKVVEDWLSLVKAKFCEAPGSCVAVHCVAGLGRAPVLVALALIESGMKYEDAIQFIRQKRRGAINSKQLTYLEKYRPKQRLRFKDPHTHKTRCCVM

Sequence of recombinant human His6-tagged PTP4A2 (Q12974 whole entry): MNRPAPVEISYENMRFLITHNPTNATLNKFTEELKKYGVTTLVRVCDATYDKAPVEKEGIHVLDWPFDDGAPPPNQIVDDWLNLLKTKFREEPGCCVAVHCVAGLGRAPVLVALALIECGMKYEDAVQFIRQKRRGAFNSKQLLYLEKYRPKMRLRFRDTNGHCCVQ

IC50 [1] | IC50 PTP4A3 ([2]; DiFMUP 12 μM, 25 minutes, 25° C., mean ± S.E.M.) | SMILES | preference among the PTP4A family members [2]
113 nM |  | N=C1C(=O)NC(=O)c2cc(-c3ccccc3Cl)sc21 [Compound 9k, 2-(2-Chlorophenyl)-7-iminothieno[3,2-c]pyridine-4,6(5H,7H)-dione] | even more pronounced preference for PTP4A3 compared with PTP4A2
 |  | N=C1C(=O)NC(=O)c2cc(-c3ccc(OCCN4CCOCC4)cc3)sc21 [Compound 9o, 7-Imino-2-(4-(2-morpholinoethoxy)phenyl)thieno[3,2-c]pyridine-4,6(5H,7H)-dione] | little preference
264 nM |  | CN1C(=O)C(=N)c2sc(-c3ccccc3)cc2C1=O [Compound 9p, 7-Imino-5-methyl-2-phenylthieno[3,2-c]pyridine-4,6(5H,7H)-dione] | even more pronounced preference for PTP4A3 compared with PTP4A2
 | failed to inhibit PTP4A3 | O=c1[nH]c(=O)c2cc(-c3ccccc3)sc2[nH]1 [JMS-038, 6-phenylthieno[2,3-d]pyrimidine-2,4(1H,3H)-dione, reference compound] | 

— patent publication US12227515B2, “In-flow photooxygenation of aminothienopyridinones generates novel PTP4A3 phosphatase inhibitors” (University of Virginia Patent Foundation, priority 2018, dated 2025)
